Patent US20090275780A1, “PROCESS FOR CONTROLLING THE PARTICLE SIZE OF A 3-(TRIFLUOROMETHYL)PHENYL]-1-AMINOPROPANE DERIVATIVE” (MEDICHEM, S.A., priority 2008, published 2009)

Assay: Particle size distribution by Malvern Mastersizer S particle size analyzer
Type: physicochemical
Conditions: for particle size D[v, 0.5] / particle size D[v, 0.9]: crystals as isolated after crystallization from isobutyl acetate and drying, by volume, mean of nine readings, hydrochloride; for AFTER MILLING D[v, 0..5] / AFTER MILLING D[v, 0.9]: after milling 1 hour, Specac Specamill, three agate balls, maximum amplitude; for BEFORE MILLING D[v, 0.9]: in µm (unit assumed)
Description: The particle size for cinacalcet hydrochloride was measured using a Malvern Mastersizer S particle size analyzer with an MS1 Small Volume Sample Dispersion Unit stirred cell. A 300RF mm lens and a beam length of 2.4 mm were used. Samples for analysis were prepared by dispersing a weighed amount of cinacalcet hydrochloride (approximately 60 mg) in 20 mL of sample dispersant, previously prepared by dilution of 1.5 g of Soybean Lecithin to 200 mL with Isopar G. The suspension was delivered drop-wise to the background-corrected measuring cell filled with dispersant (Isopar G) until the obscuration reached the desired level. Nine repeated readings of the volume distributions were taken. For characterization, the values of D50 and D90 (by volume) were selected and reported as the mean of the nine values measured.

[1] = listed as Cinacalcet hydrochloride from Example 9, hydrochloride
[2] = listed as Cinacalcet hydrochloride from Example 4, hydrochloride
[3] = listed as Cinacalcet hydrochloride from Example 7, hydrochloride

For `C[C@@H](NCCCc1cccc(C(F)(F)F)c1)c1cccc2ccccc12.Cl` [Example 11, cinacalcet hydrochloride], which “particle size D[v, 0.5]” value is on record?
The value was 99.8 μm.

And the “particle size D[v, 0.9]” value?
The value was 466.9 μm.

For `C[C@@H](NCCCc1cccc(C(F)(F)F)c1)c1cccc2ccccc12.Cl` [Example 2, cinacalcet hydrochloride], which “particle size D[v, 0.5]” value is on record?
Its value is 20.7 μm.

And the “particle size D[v, 0.9]” value?
Its value is 86.1 μm.

Which results are given for `C[C@@H](NCCCc1cccc(C(F)(F)F)c1)c1cccc2ccccc12.Cl` [Example 6, cinacalcet hydrochloride]?
particle size D[v, 0.5]: 65.0 μm; particle size D[v, 0.9]: 392.3 μm

Which AFTER MILLING D[v, 0..5] [1] does the source give for `C[C@@H](NCCCc1cccc(C(F)(F)F)c1)c1cccc2ccccc12.Cl` [Example 9, cinacalcet hydrochloride] here?
The AFTER MILLING D[v, 0..5] was 25.1 µm.

And the AFTER MILLING D[v, 0.9] [1]?
Its AFTER MILLING D[v, 0.9] is 76.7 µm.

What about the BEFORE MILLING D[v, 0..5] [1] of the same compound?
Its BEFORE MILLING D[v, 0..5] is 74 µm.

What about the “BEFORE MILLING D[v, 0.9]” value [1] of the same compound?
The value was 518.3.

What about the “particle size D[v, 0.5]” value of the same compound?
Its value is 74.0 μm.

And the “particle size D[v, 0.9]” value?
Its value is 518.3 μm.

Which “particle size D[v, 0.5]” value does the source give for `C[C@@H](NCCCc1cccc(C(F)(F)F)c1)c1cccc2ccccc12.Cl` [Example 1, cinacalcet hydrochloride] here?
Its value is 23.4 μm.

What about the “particle size D[v, 0.9]” value of the same compound?
Its value is 95.4 μm.

With `C[C@@H](NCCCc1cccc(C(F)(F)F)c1)c1cccc2ccccc12.Cl` [Example 4, cinacalcet hydrochloride] as the compound, how does the AFTER MILLING D[v, 0..5] [2] read?
Its AFTER MILLING D[v, 0..5] is 25.7 µm.

What about the AFTER MILLING D[v, 0.9] [2] of the same compound?
Its AFTER MILLING D[v, 0.9] is 91.8 µm.

What about the BEFORE MILLING D[v, 0..5] [2] of the same compound?
The BEFORE MILLING D[v, 0..5] was 57.7 µm.

What about the “BEFORE MILLING D[v, 0.9]” value [2] of the same compound?
The value was 403.9.

And the “particle size D[v, 0.5]” value?
The value was 57.7 μm.

And the “particle size D[v, 0.9]” value?
Its value is 403.9 μm.

With `C[C@@H](NCCCc1cccc(C(F)(F)F)c1)c1cccc2ccccc12.Cl` [Example 7, cinacalcet hydrochloride] as the compound, how does the AFTER MILLING D[v, 0..5] [3] read?
Its AFTER MILLING D[v, 0..5] is 21.2 µm.

What about the AFTER MILLING D[v, 0.9] [3] of the same compound?
Its AFTER MILLING D[v, 0.9] is 83.3 µm.

And the BEFORE MILLING D[v, 0..5] [3]?
Its BEFORE MILLING D[v, 0..5] is 70.3 µm.

And the “BEFORE MILLING D[v, 0.9]” value [3]?
The value was 431.7.

What about the “particle size D[v, 0.5]” value of the same compound?
Its value is 70.3 μm.

What about the “particle size D[v, 0.9]” value of the same compound?
The value was 431.7 μm.

With `C[C@@H](NCCCc1cccc(C(F)(F)F)c1)c1cccc2ccccc12.Cl` [Example 3, cinacalcet hydrochloride] as the compound, how does the “particle size D[v, 0.5]” value read?
Its value is 49.8 μm.

And the “particle size D[v, 0.9]” value?
Its value is 387.9 μm.

What does the source list for `C[C@@H](NCCCc1cccc(C(F)(F)F)c1)c1cccc2ccccc12.Cl` [Example 5, cinacalcet hydrochloride]?
particle size D[v, 0.5]: 76.4 μm; particle size D[v, 0.9]: 456.0 μm

For `C[C@@H](NCCCc1cccc(C(F)(F)F)c1)c1cccc2ccccc12.Cl` [Example 8, cinacalcet hydrochloride], which “particle size D[v, 0.5]” value is on record?
The value was 67.2 μm.

And the “particle size D[v, 0.9]” value?
Its value is 459.0 μm.
